Source: ChEMBL document CHEMBL1147299, “12-epi-teuscordonin and other neoclerodanes from Teucrium bicolor” (J Nat Prod, 1989)

System: Artemia salina
Experiment: Toxicity to Artemia salina after 24 hrs
Assay type: organism-based
Conditions: in vivo

| SMILES | LC50 |
| --- | --- |
| CC(=O)OC[C@@]12[C@@H](OC(C)=O)C[C@@H](C)[C@]3(C[C@H](c4ccoc4)OC3=O)[C@H]1CCC[C@]21CO1 [MONTANIN C] | 66.4 ppm |
| C[C@@H]1C[C@@H]2OC(=O)C3=C2[C@H](CCC3)[C@@]12C[C@@H](c1ccoc1)OC2=O [TEUCVIN] | > 500 ppm |
| C[C@@H]1C[C@@H](O)[C@@]23COC(=O)[C@@H]2CCC[C@@H]3[C@@]12C[C@@H](c1ccoc1)OC2=O | > 500 ppm |
